From US12545639B2, “3-substituted phenylamidine compounds, preparation and use thereof” (PI INDUSTRIES LTD., priority 2019, dated 2026)

Tests used:
[1] = tested on: Alternaria solani; assay: Alternaria solani (early blight of tomato/potato) in vitro test, radial growth on potato dextrose agar; format: cell-based; details: 168 h, 300 ppm in potato dextrose agar, 25° C., 60% relative humidity, seven days, read-out: control compared to the untreated check (radial growth)
[2] = tested on: Colletotrichum capsici; assay: Colletotrichum capsici (anthracnose) in vitro test, radial growth on potato dextrose agar; format: cell-based; details: Colletotrichum truncatum, 168 h; 300 ppm in potato dextrose agar; 25° C., 60% relative humidity, seven days; read-out: control compared to the untreated check (radial growth)
[3] = tested on: Septoria lycopersici/Corynespora cassicola (CORYCA); assay: Septoria lycopersici/Corynespora cassicola (CORYCA) (leaf spot of tomato) in vitro test, radial growth on potato dextrose agar; format: cell-based; details: 168 h, 300 ppm in potato dextrose agar, 25° C., 70% relative humidity, seven days, read-out: control compared to the untreated check (radial growth)
[4] = tested on: Pyricularia oryzae; assay: microbe, parasite or virus in culture; format: cell-based; details: 168 h, read-out: control compared to the untreated check (radial growth)
[5] = tested on: Rhizoctonia solani; assay: Rhizoctonia solani (rice sheath blight/potato black scurf) in vitro test, radial growth on potato dextrose agar; format: cell-based; details: 168 h, 300 ppm in potato dextrose agar, 25° C., 60% relative humidity, seven days, read-out: control compared to the untreated check (radial growth)
[6] = tested on: Botrytis cinerea; assay: Botrytis cinerea (gray mold) in vitro test, radial growth on potato dextrose agar; format: cell-based; details: 168 h, 300 ppm in potato dextrose agar, 22° C., 90% relative humidity, seven days, read-out: control compared to the untreated check (radial growth)
[7] = tested on: Phakopsora pachyrhizi; assay: Phakopsora pachyrhizi test in soybean, preventive, in vivo on plants; details: in Glycine max, read-out: Efficacy (% control), disease severity compared to the untreated check

CCc1cccc(Nc2cc(C)cc(N=CN(C)CC)c2Cl)n1 [Compound 226, N′-(2-chloro-3-((6-ethylpyridin-2-yl)amino)-5-methylphenyl)-N-ethyl-N-methylformimidamide]
≥ 70%: inhibition of growth at 300 ppm [1] | inhibition of growth at 300 ppm [2] | inhibition of growth at 300 ppm [3]

CCN(C)C=Nc1cc(Cl)cc(N(C)c2cnccn2)c1C [Compound 213, N′-(5-chloro-2-methyl-3-(methyl(pyrazin-2-yl)amino)phenyl)-N-ethyl-N-methylformimidamide]
≥ 70%: inhibition of growth at 300 ppm [4] | inhibition of growth at 300 ppm [5] | inhibition of growth at 300 ppm [6] | inhibition of growth at 300 ppm [1] | inhibition of growth at 300 ppm [2] | inhibition of growth at 300 ppm [3]

CCN(C)C=Nc1cc(C)cc(Cc2cccc(F)c2)c1Br [Compound 189, N′-(2-bromo-3-(3-fluorobenzyl)-5-methylphenyl)-N-ethyl-N-methylformimidamide]
≥ 70%: inhibition of growth at 300 ppm [4] | inhibition of growth at 300 ppm [5] | inhibition of growth at 300 ppm [1] | inhibition of growth at 300 ppm [2] | inhibition of growth at 300 ppm [3] | pest or weed control at 500 ppm [7]

CCN(C)C=Nc1cc(F)cc(Nc2cc(F)cc(Cl)c2)c1C [Compound 96, N′-(3-((3-chloro-5-fluorophenyl)amino)-5-fluoro-2-methylphenyl)-N-ethyl-N-methylformimidamide]
≥ 70%: inhibition of growth at 300 ppm [4] | inhibition of growth at 300 ppm [5] | inhibition of growth at 300 ppm [6] | inhibition of growth at 300 ppm [1] | inhibition of growth at 300 ppm [2] | inhibition of growth at 300 ppm [3]

CCN(C)C=Nc1cc(Cl)cc(Cc2ccc(Cl)c(F)c2)c1C [Compound 131, N′-(5-chloro-3-(4-chloro-3-fluorobenzyl)-2-methylphenyl)-N-ethyl-N-methylformimidamide]
≥ 70%: inhibition of growth at 300 ppm [4] | inhibition of growth at 300 ppm [5] | inhibition of growth at 300 ppm [1] | inhibition of growth at 300 ppm [2] | inhibition of growth at 300 ppm [3] | pest or weed control at 500 ppm [7]

CCN(C)C=Nc1cc(F)cc(Nc2ccccc2F)c1C [Compound 19, N-ethyl-N′-(5-fluoro-3-((2-fluorophenyl)amino)-2-methylphenyl)-N-methylformimidamide]
≥ 70%: inhibition of growth at 300 ppm [4] | inhibition of growth at 300 ppm [5] | inhibition of growth at 300 ppm [6] | inhibition of growth at 300 ppm [1] | inhibition of growth at 300 ppm [2] | inhibition of growth at 300 ppm [3]

CCN(C)C=Nc1cc(C)cc(Nc2ccccc2F)c1Cl [Compound 23, N′-(2-chloro-3-((2-fluorophenyl)amino)-5-methylphenyl)-N-ethyl-N-methylformimidamide]
≥ 70%: inhibition of growth at 300 ppm [4] | inhibition of growth at 300 ppm [5] | inhibition of growth at 300 ppm [1] | inhibition of growth at 300 ppm [2] | inhibition of growth at 300 ppm [3] | pest or weed control at 500 ppm [7]

CCN(C)C=Nc1cc(C)cc(Cc2ccccc2C)c1Br [Compound 209, N′-(2-bromo-5-methyl-3-(2-methylbenzyl)phenyl)-N-ethyl-N-methylformimidamide]
≥ 70%: inhibition of growth at 300 ppm [5] | inhibition of growth at 300 ppm [1] | inhibition of growth at 300 ppm [2] | inhibition of growth at 300 ppm [3] | pest or weed control at 500 ppm [7]

CCN(C)C=Nc1cc(C)cc(Nc2cc(C)ccc2Cl)c1Cl [Compound 115, N′-(2-chloro-3-((2-chloro-5-methylphenyl)amino)-5-methylphenyl)-N-ethyl-N-methylformimidamide]
≥ 70%: inhibition of growth at 300 ppm [4] | inhibition of growth at 300 ppm [1] | inhibition of growth at 300 ppm [2] | inhibition of growth at 300 ppm [3] | pest or weed control at 500 ppm [7]

CCN(C)C=Nc1cc(F)cc(N(C)c2ccccc2)c1C [Compound 11, N-ethyl-N′-(5-fluoro-2-methyl-3-(methyl(phenyl)amino)phenyl)-N-methylformimidamide]
≥ 70%: inhibition of growth at 300 ppm [5] | inhibition of growth at 300 ppm [6] | inhibition of growth at 300 ppm [1] | inhibition of growth at 300 ppm [2] | inhibition of growth at 300 ppm [3]

CCN(C)C=Nc1cc(F)cc(Nc2ccccc2C)c1C [Compound 15, N-ethyl-N′-(5-fluoro-2-methyl-3-(o-tolylamino)phenyl)-N-methylformimidamide]
≥ 70%: inhibition of growth at 300 ppm [4] | inhibition of growth at 300 ppm [5] | inhibition of growth at 300 ppm [6] | inhibition of growth at 300 ppm [1] | inhibition of growth at 300 ppm [2] | inhibition of growth at 300 ppm [3]

CCN(C)C=Nc1cc(C)cc(N(C)c2ncc(Cl)cc2C)c1Cl [Compound 118, N′-(2-chloro-3-((5-chloro-3-methylpyridin-2-yl)(methyl)amino)-5-methylphenyl)-N-ethyl-N-methylformimidamide]
≥ 70%: inhibition of growth at 300 ppm [4] | inhibition of growth at 300 ppm [6] | inhibition of growth at 300 ppm [1] | inhibition of growth at 300 ppm [2] | inhibition of growth at 300 ppm [3]

CCN(C)C=Nc1cc(Cl)cc(Cc2cccc(Cl)c2)c1C [Compound 101, N′-(5-chloro-3-(3-chlorobenzyl)-2-methylphenyl)-N-ethyl-N-methylformimidamide]
≥ 70%: inhibition of growth at 300 ppm [4] | inhibition of growth at 300 ppm [1] | inhibition of growth at 300 ppm [2] | inhibition of growth at 300 ppm [3] | pest or weed control at 500 ppm [7]

CCN(C)C=Nc1cc(C)cc(Nc2ccccc2)c1Cl [Compound 9, N′-(2-chloro-5-methyl-3-(phenylamino)phenyl)-N-ethyl-N-methylformimidamide]
≥ 70%: inhibition of growth at 300 ppm [4] | inhibition of growth at 300 ppm [5] | inhibition of growth at 300 ppm [6] | inhibition of growth at 300 ppm [1] | inhibition of growth at 300 ppm [2] | inhibition of growth at 300 ppm [3]

CCN(C)C=Nc1cc(C)cc(Nc2cccc(C)c2)c1Cl [Compound 36, N′-(2-chloro-5-methyl-3-(m-tolylamino)phenyl)-N-ethyl-N-methylformimidamide]
≥ 70%: inhibition of growth at 300 ppm [4] | inhibition of growth at 300 ppm [1] | inhibition of growth at 300 ppm [2] | inhibition of growth at 300 ppm [3] | pest or weed control at 500 ppm [7]

CCN(C)C=Nc1cc(C)cc(Cc2ccccc2F)c1C [Compound 219, N-ethyl-N′-(3-(2-fluorobenzyl)-2,5-dimethylphenyl)-N-methylformimidamide]
≥ 70%: inhibition of growth at 300 ppm [4] | inhibition of growth at 300 ppm [5] | inhibition of growth at 300 ppm [1] | inhibition of growth at 300 ppm [2] | inhibition of growth at 300 ppm [3] | pest or weed control at 500 ppm [7]

CCN(C)C=Nc1cc(C)cc(Cc2ccc(F)c(C)c2)c1Cl [Compound 68, N′-(2-chloro-3-(4-fluoro-3-methylbenzyl)-5-methylphenyl)-N-ethyl-N-methylformimidamide]
≥ 70%: inhibition of growth at 300 ppm [4] | inhibition of growth at 300 ppm [5] | inhibition of growth at 300 ppm [6] | inhibition of growth at 300 ppm [1] | inhibition of growth at 300 ppm [2] | pest or weed control at 500 ppm [7]

CCN(C)C=Nc1cc(C)cc(Cc2ccc(F)cc2C)c1Cl [Compound 65, N′-(2-chloro-3-(4-fluoro-2-methylbenzyl)-5-methylphenyl)-N-ethyl-N-methylformimidamide]
≥ 70%: inhibition of growth at 300 ppm [4] | inhibition of growth at 300 ppm [5] | inhibition of growth at 300 ppm [6] | inhibition of growth at 300 ppm [1] | inhibition of growth at 300 ppm [2] | pest or weed control at 500 ppm [7]

CCN(C)C=Nc1cc(F)cc(Nc2cc(C)ccc2Cl)c1C [Compound 113, N′-(3-((2-chloro-5-methylphenyl)amino)-5-fluoro-2-methylphenyl)-N-ethyl-N-methylformimidamide]
≥ 70%: inhibition of growth at 300 ppm [4] | inhibition of growth at 300 ppm [5] | inhibition of growth at 300 ppm [1] | inhibition of growth at 300 ppm [2] | inhibition of growth at 300 ppm [3] | pest or weed control at 500 ppm [7]

CCN(C)C=Nc1cc(C)cc(Nc2ccccc2C)c1Cl [Compound 24, N′-(2-chloro-5-methyl-3-(o-tolylamino)phenyl)-N-ethyl-N-methylformimidamide]
≥ 70%: inhibition of growth at 300 ppm [4] | inhibition of growth at 300 ppm [5] | inhibition of growth at 300 ppm [6] | inhibition of growth at 300 ppm [1] | inhibition of growth at 300 ppm [2] | inhibition of growth at 300 ppm [3]

CCN(C)C=Nc1cc(F)cc(Nc2cccc(Cl)c2)c1C [Compound 37, N′-(3-((3-chlorophenyl)amino)-5-fluoro-2-methylphenyl)-N-ethyl-N-methylformimidamide]
≥ 70%: inhibition of growth at 300 ppm [4] | inhibition of growth at 300 ppm [5] | inhibition of growth at 300 ppm [6] | inhibition of growth at 300 ppm [1] | inhibition of growth at 300 ppm [2] | inhibition of growth at 300 ppm [3]

CCN(C)C=Nc1cc(F)cc(Nc2cc(C)cc(F)c2)c1C [Compound 114, N-ethyl-N′-(5-fluoro-3-((3-fluoro-5-methylphenyl)amino)-2-methylphenyl)-N-methylformimidamide]
≥ 70%: inhibition of growth at 300 ppm [4] | inhibition of growth at 300 ppm [1] | inhibition of growth at 300 ppm [2] | inhibition of growth at 300 ppm [3] | pest or weed control at 500 ppm [7]

CCN(C)C=Nc1cc(C)cc(Cc2ccccc2C(F)(F)F)c1Cl [Compound 21, N′-(2-chloro-5-methyl-3-(2-(trifluoromethyl)benzyl)phenyl)-N-ethyl-N-methylformimidamide]
≥ 70%: inhibition of growth at 300 ppm [4] | inhibition of growth at 300 ppm [5] | inhibition of growth at 300 ppm [6] | inhibition of growth at 300 ppm [1] | inhibition of growth at 300 ppm [2] | pest or weed control at 500 ppm [7]
